Laboratory results as given in patent US20210308101A1, “METHODS OF TREATING FIBROMYALGIA” (Aptinyx Inc., priority 2019, published 2021).
“Also recorded” adds a separate entry of the source.

Assays:
Assay type in all cases: in vivo, human
[1] = test system: subjects with fibromyalgia; assay: PROMIS Sleep Disturbance short form; conditions: not statistically significant
From the text: As used herein, the “PROMIS Sleep Disturbance” short form is Patient Reported Outcomes Measurement Information System Sleep Disturbance—Short Form. The PROMIS Sleep Disturbance short form version 1.0 8b is an 8-item instrument that assesses sleep disturbance in subjects 18 years and older. All 8 questions are based on a 5-point numerical rating scale/Likert scale ranging from 1 to 5 with different categorical responses. Lower scores represent a better quality of life. The total score was calculated by taking the sum of all 8 questions and ranged from 8 to 40. If at least 4 questions were answered, the total score was imputed if missing responses were present. The total score was multiplied by 8/(number of questions answered) and rounded off to the nearest whole number. Otherwise, the total score was set to missing.
The PROMIS Sleep Disturbance short form assessment was collected and analyzed at visits Screening, Day 1, Week 2, Week 4, Week 6, and Follow-up (Week 7). The observed total score, changes from baseline, and changes from treatment periods were summarized using descriptive statistics. Additionally, the treatment group comparisons were analyzed using the paired t-test and nonparametric Wilcoxon signed-rank test. All PROMIS Sleep Disturbance short form data collected and the calculated total score at each visit were presented in a subject listing.

[2] = test system: visual stimulus-evoked brain activation; assay: fMRI of visual stimulation, BOLD activations; conditions: either dose relative to baseline or placebo
From the text: As used herein, “Functional Magnetic Resonance Imaging of Evoked Pain and Visual Stimulation” refers to the following procedure. During evoked pain and visual stimulation fMRI paradigms, participants were lying in the scanner as they received either pressure stimulation to their calf muscle or they experienced an unpleasant visual stimulus. For both pain and visual stimulation, whole-brain Blood Oxygenation Level Dependent (BOLD) functional images were acquired.
Neural mechanisms of this multimodal hypersensitivity were assessed using fMRI. Whole brain BOLD functional images were acquired. The visual stimulation task was 3 minutes in duration and consisted of 2 different visual stimuli presented in a block design. The control stimulus was a fixed crosshair centered in the middle of a solid color background, whereas the experimental stimulus was a flashing annulus checkerboard (8 Hz frequency) (see below figure of example of visual stimuli). […]
Several analyses were conducted with the fMRI resting state and task data. Results were assessed by: 1) a primary analysis, where a finding was deemed significant with a corrected cluster level p<0.05, derived from an uncorrected voxel-wise p<0.001, and 2) an exploratory analysis, where a finding was deemed significant with an uncorrected voxel-wise p<0.005 and having a cluster greater than or equal to 80 contiguous voxels. […]

[3] = test system: resting state functional connectivity; assay: rs-fcMRI seed-based region of interest functional connectivity
From the text: Resting state functional connectivity magnetic resonance imaging (rs-fcMRI) also uses noninvasive techniques to map blood flow in the brain. In rs-fcMRI, neural connections between different areas of the brain are identified by mapping regions of synchronous blood flow fluctuations. Synchronous blood fluctuations are examined to determine the strength of neural connections between different brain regions.
Resting 6-minute scans, with subjects resting comfortably in the scanner with eyes open and fixated on a crosshair, were completed at the beginning of the scan session. Whole brain BOLD rs-fcMRI data were collected following same parameters used for evoked fMRI. Physiological data were also collected simultaneously with rs-fcMRI data, as cardiorespiratory fluctuations are known to influence rs-fcMRI intrinsic connectivity estimation within several brain networks
In order to quantify intrinsic brain connectivity, rs-fcMRI data were analyzed with both dual-regression ICA and seed-voxel approaches. These approaches are complementary, as they quantify intrinsic brain connectivity on a network level (dual regression probabilistic ICA) and a more specific region-focused level (seed-voxel).
Resting state functional connectivity MRI data were preprocessed and analyzed using statistical parametric mapping software package Version 12, the CONN functional connectivity toolbox, and the GIFT toolbar, all running on MATLAB Version 9.2 or later. Upon collection of rs-fcMRI data, physiological artifacts were first removed using a custom MATLAB algorithm and slice-time corrected using Functional Magnetic Resonance Imaging of the Brain Software Library software. Preprocessing steps included motion correction, realignment, registration, normalization to standard Montreal Neurological Institute template, and smoothing (full width at half maximum Gaussian kernel of 6 or 8 mm).
Seed to whole brain functional connectivity analysis was performed using the CONN toolbox, Version 15, running on […]. […] Spheres were created (5 mm radius) around peak voxel coordinates and white matter, CSF, and motion parameters were used as covariates of no interest. Seed-based analyses were also performed using regions of interest assessed with single voxel ^1H-MRS regions showing NYX-2925 effects on Glx level. Data were band pass filtered (0.01 to 0.1 Hz) to remove linear drifts and high frequency noise. First level analysis correlated the time course from the seed to all brain voxels, creating connectivity maps for each seed region. These connectivity maps were passed up to group-level analyses comparing differences in connectivity at the visits of interest in statistical parametric mapping.
Several analyses were conducted with the fMRI resting state and task data. Results were assessed by: 1) a primary analysis, where a finding was deemed significant with a corrected cluster level p<0.05, derived from an uncorrected voxel-wise p<0.001, and 2) an exploratory analysis, where a finding was deemed significant with an uncorrected voxel-wise p<0.005 and having a cluster greater than or equal to 80 contiguous voxels. Results that met significance in the primary analyses had connectivity values extracted and imported into SPSS v25 where paired t-tests were performed to assess for potential outliers contributing to the finding. Remaining data were then correlated with clinical measures using parametric bivariate Pearson correlations. Results were deemed significant at p<0.05.
Seed-based, region of interest, functional connectivity analyses were performed (n=18) for regions that were used to acquire ^1H-MRS data: dACC, perigenual anterior cingulate cortex (pgACC), right anterior insula cortex, right posterior insula cortex, precuneus, thalamus, and medial prefrontal cortex.

[4] = exploratory, placebo visit to NYX-2925 200 mg visit

## CC(C)C(=O)N1CCC[C@]12CN([C@H](C(N)=O)[C@@H](C)O)C2=O [NYX-2925, (2S, 3R)-3-hydroxy-2-((R)-5-isobutyryl-1-oxo-2,5-diazaspiro[3.4]octan-2-yl)butanamide]
[1]; Week 2 (placebo) to Week 4 (NYX-2925 20 mg)
  PROMIS Sleep Disturbance short form score, mean change: −0.9
[1]; Week 2 (placebo) to Week 6 (NYX-2925 200 mg)
  PROMIS Sleep Disturbance short form score, mean change: −1.6
[2]
  BOLD activation, visual task: No significant or marginal changes in BOLD activation
[3]; baseline visit to NYX-2925 200 mg visit, PFWE=0.018
  connectivity right anterior insula cortex seed - right ventral anterior thalamic nucleus: decreased
[3]; exploratory analysis, placebo visit to NYX-2925 20 mg visit
  connectivity right posterior insula cortex seed - dACC: decrease in connectivity
[3]; exploratory, baseline visit to NYX-2925 20 mg visit
  connectivity precuneus - right anterior insula and left dACC: decreased
[3]; exploratory, placebo visit to NYX-2925 20 mg visit
  connectivity precuneus - right mid cingulate cortex: Decreases in resting state functional connectivity
[3]; [4]
  connectivity precuneus seed - right posterior/mid cingulate cortex: decreased
  connectivity thalamus seed - right anterior prefrontal cortex and bilateral precuneus: decreases in connectivity
[3]; placebo to NYX-2925 20 mg, not meeting cluster level correction significance
  functional connectivity dACC seed - right posterior insula cortex: decreased connectivity
[3]; placebo visit to NYX-2925 20 mg visit, PFWE<0.00001
  functional connectivity pgACC seed - left precuneus/precentral gyrus: decreased
[3]; placebo visit to NYX-2925 200 mg visit, PFWE=0.003 and 0.036
  connectivity medial prefrontal cortex seed - right anterior prefrontal cortex and right mid cingulate cortex: Decreases were also observed
[3]; placebo visit to NYX-2925 200 mg visit, PFWE=0.008
  functional connectivity pgACC seed - right inferior frontal gyrus: decreased
[3]; primary analyses
  connectivity of precuneus seed: no significant results
  connectivity of right posterior insula cortex seed: no significant findings
[3]; primary analysis, baseline visit to NYX-2925 200 mg visit, PFWE<0.00001
  connectivity thalamus seed - bilateral cuneus: significant decrease in resting state connectivity
[3]; primary analysis, placebo visit to NYX-2925 20 mg visit, PFWE 0.030-0.049
  functional connectivity of dACC seed to right superior temporal gyrus, left premotor/primary somatosensory cortex, right precuneus, left precentral gyrus/premotor cortex: reduced connectivity; also recorded: decreased functional connectivity
[3]; primary, baseline visit to NYX-2925 200 mg visit, PFWE=0.001
  connectivity medial prefrontal cortex seed - right anterior prefrontal/dorsolateral prefrontal cortex: Significant decreases in resting state connectivity
